Here are results for four compounds from paper PMC12295927, “Design, Synthesis, and Testing of 1,2,3-Triazolo-Quinobenzothiazine Hybrids for Cytotoxic and Immunomodulatory Activity” (International Journal of Molecular Sciences, 2025).

In general, pIC50 refers to −log10 of the IC50, conventionally taken in molar units.

pIC50: −log10 of the molar value.

Assay [1] deals with BEAS-2B. Description: Alamar Blue cytotoxicity test, BEAS-2B. It counts as cell-based, Human. The settings on record: Homo sapiens, 24 h, 24 h incubation, read-out: IC50 values for BEAS-2B line. On the procedure: The cytotoxicity of the tested chemical compounds MJ1–MJ20 was tested using the Alamar Blue test. The experiment was conducted on cell lines BEAS-2B (Figure 7), HCT116 (Figure 8), U2OS (Figure 9), MCF7 (Figure 10), SH-SY5Y (Figure 11), NHDF (Figure 12), and A549 (Figure 13). Cells were seeded in 96-well plates and incubated with the tested compounds for 24 h. The test result is the IC50 parameter, which is a measure of cytotoxic activity expressed by the concentration of the substance that causes the death of half of the analyzed cells compared to the control.
In cytotoxicity studies, the Alamar Blue test was used, which is based on the ability of living cells to reduce the non-fluorescent dye resazurin to fluorescent resorufin, which reflects the metabolic activity of cells. BEAS-2B, NHDF, HCT116, MCF7, A549, SH-SY5Y and U2OS cell lines were cultured under standard conditions, in DMEM medium supplemented with 10% FBS and 1% penicillin/streptomycin, at 37 °C, 5% CO2 and 95% humidity. Cells were seeded in 96-well plates at 1 × 10^4 cells per well and incubated for 24 h. Then, the tested compounds (MJ1–MJ20) were added at different concentrations (from 6.25 µM to 100 µM). The control contained cells untreated with the tested compounds. After 24 h of incubation, 10 µL of Alamar Blue solution was added to each well and incubated for another 2–4 h under the same conditions. The signal was measured spectrophotometrically at wavelengths of 570 nm (for resorufin) and 600 nm (for resazurin) or optionally fluorimetrically, using an excitation maximum of 570 nm and an emission maximum of 585 nm. The results were presented as percentage of cell survival relative to the control, calculating the ratio of absorbance or fluorescence of the sample to the control value. The Alamar Blue assay, due to its sensitivity and non-toxicity, allows for an accurate assessment of metabolic activity and cell survival in response to the tested quinobenzothiazines.
(In general: Alamar Blue is a resazurin reagent that responds to reducing activity.)

In assay [2] the test system is IL8 gene. Put plainly: RT-qPCR IL8 gene expression in BEAS-2B. It counts as cell-based. The settings on record: Homo sapiens, 24 h, reference gene RPL41, vs untreated control, read-out: Relative level of expression, IL8 gene. On the procedure: (§1) Real-time polymerase chain reaction was performed for the reference gene RPL41 (ribosomal protein L41) and the tested genes: BCL2, AIFM2, MDM2, IL6 and IL8. […] The BEAS-2B line was selected for the experiment. The expression level of selected genes was measured after 24 h of incubation with the tested substances MJ1–MJ20 at a concentration of 100 μM (Table 3).
The RT-qPCR experiment was performed for the BEAS-2B cell line. In this experiment, the IL6 and IL8 genes were studied and RPL41 was used as a reference gene (Figure 17 and Figure 18).
(§2) Gene expression studies used quantitative RT-qPCR to assess the effect of the tested quinobenzothiazines (MJ1–MJ20) on the expression of apoptosis-related genes (BCL2, AIFM2, MDM2) and pro-inflammatory cytokines (IL6, IL8) (Table 4).
(§3) BEAS-2B and HCT116 cells were seeded in 6-well plates at 2 × 10^5 cells per well and cultured in RPMI-1640 (BEAS-2B) or DMEM (HCT116) medium supplemented with 10% FBS and 1% penicillin/streptomycin at 37 °C, 5% CO2 and 95% humidity. After 24 h of incubation, the tested compounds were added at a concentration of 100 µM. After 24 h, the medium was removed from the cells, washed with PBS solution, 0.5 mL of trypsin was added per well and after 5 min it was neutralized with medium. The obtained cell suspension was centrifuged for 3 min at 2000 rpm, the supernatant was removed, and the obtained pellet was suspended in 400 µL of phenozol. Samples were frozen at −20 °C and stored until further experiment and RNA isolation.
(§4) Total RNA was isolated from cells using the A&A Biotechnology Total RNA Mini kit according to the manufacturer’s protocol. RNA quality and quantity were assessed using a NanoDrop 2000 spectrophotometer at 260/280 nm. Reverse transcription was performed using the protocol (EURx NG dART RT Kit) to obtain cDNA. After incubation, samples were placed in a freezer (−20 °C) and stored until further analysis.
(§5) The experiment was performed according to the protocol (Brilliant III Ultra Fast SYBR® Green QPCR Master Mix, Quick Reference Guide for the Bio-Rad CFX96 Real-Time PCR Detection System). RT-qPCR reaction was performed using specific primers for target genes (BCL2, AIFM2, MDM2, IL6, IL8). Gene expression was normalized to the expression of the reference gene RPL41. Reaction profiles and results were performed using Bio-Rad CFX Maestro 1.1 software from Bio-Rad. Analysis and calculations of the results obtained during RT-qPCR were performed using Microsoft Excel.
(§6) The results were analyzed using the R = 2^−ΔΔCt method, which allows for determining the relative level of gene expression (R) compared to the control. Each experiment was performed in three technical and biological replicates. RT-qPCR allowed for precise assessment of changes in the expression of genes related to the processes of apoptosis and inflammatory response under the influence of quinobenzothiazines, which allowed for identifying their potential mechanisms of action at the molecular level.
(In qPCR the cycle at which signal appears reflects the starting amount.)

Assay [3] relates to IL6 gene. Put plainly: RT-qPCR IL6 gene expression in HCT116. The format is cell-based, Human. The settings on record: HCT116, 100 μM, 24 h, vs untreated control. On the procedure: (§7) In each of the four compound groups: MJ1–MJ5, MJ6–MJ10, MJ11–MJ15, and MJ16–MJ20, one compound was selected based on the best IC50 value and a distinctive gene expression profile (BCL2, MDM2, AIFM2, IL6, IL8).
as §2
(§8) BEAS-2B and HCT116 cells were seeded in 6-well plates at 2 × 10^5 cells per well and cultured in RPMI-1640 (BEAS-2B) or DMEM (HCT116) medium supplemented with 10% FBS and 1% penicillin/streptomycin at 37 °C, 5% CO2 and 95% humidity. After 24 h of incubation, the tested compounds were added at a concentration of 100 µM. After 24 h, the medium was removed from the cells, washed with PBS solution, 0.5 mL of trypsin was added per well and after 5 min it was neutralized with medium. […]
(§9) Total RNA was isolated from cells using the A&A Biotechnology Total RNA Mini kit according to the manufacturer’s protocol. RNA quality and quantity were assessed using a NanoDrop 2000 spectrophotometer at 260/280 nm. […]
(§10) The results were analyzed using the R = 2^−ΔΔCt method, which allows for determining the relative level of gene expression (R) compared to the control. […]

Assay [4] deals with BCL2 gene. Put plainly: RT-qPCR BCL2 gene expression in BEAS-2B. The format is cell-based, Human. Particulars: 24 h; for fold induction at 100 µM: Homo sapiens, reference gene RPL41, vs untreated control, read-out: Relative level of expression, BCL2 gene. On the procedure:
as §1
The RT-qPCR experiment was performed for the BEAS-2B cell line. In this experiment, the BCL2 gene was studied, and RPL41 was used as the reference gene (Figure 14).
as §2, §3, §4, §5, §6

Assay [5] relates to IL8 gene. Put plainly: RT-qPCR IL8 gene expression in HCT116. It counts as cell-based, Human. The settings on record: HCT116, 100 μM, 24 h, vs untreated control. On the procedure: as §7, §2, §8, §9, §10
The subject of assay [6] is AIFM2 gene. Put plainly: RT-qPCR AIFM2 gene expression in HCT116. It counts as cell-based, Human. Particulars: HCT116, 100 μM, 24 h, vs untreated control. On the procedure: as §7, §2, §8, §9, §10
Assay [7] relates to MDM2 gene. Description: RT-qPCR MDM2 gene expression in HCT116. The format is cell-based, Human. The settings on record: HCT116, 100 μM, 24 h, vs untreated control. On the procedure:
as §7, §2, §8, §9, §10

As for `Fc1ccc2c(c1)Sc1cc3ccccc3nc1N2Cc1cn(Cc2ccc(Cl)cc2)nn1` [MJ8, 9-Fluoro-6-[(1-(4-chlorobenzyl)-1H-1,2,3-triazol-4-yl)methyl]-quino[3,2-b]benzo-[1,4]thiazine], in assay [1], the negative-log IC50 (pIC50) is 4.14. Besides, the fold induction at 100 µM amounted to 4 in assay [2] and 10.1 in assay [4]. In assay [3], the “Relative level of expression, IL6 gene” value turned out to be 6.55. Also, the “Relative level of expression, IL8 gene” value in assay [5] stood at 6.95.

As for `CSc1ccc2c(c1)Sc1cc3ccccc3nc1N2Cc1cn(Cc2ccc(C#N)cc2)nn1` [MJ19, 4-((4-((9-Methylthioquino[3,2-b]benzo[1,4]thiazin-6-yl)methyl)-1H-1,2,3-triazol-1-yl)methyl)benzonitrile], in assay [1], the pIC50 is 4.14. Besides, the fold induction at 100 µM is 12.8 in assay [2] and 208 in assay [4]. The BCL2 expression increase in assay [4] (100 μM, compared to control) came out at 208 fold.

For `Clc1ccc2c(c1)Sc1cc3ccccc3nc1N2Cc1cn(CSc2ccccc2)nn1` [MJ15, 9-Chloro-6-((1-((phenylthio)methyl)-1H-1,2,3-triazol-4-yl)methyl)-quino[3,2-b]benzo[1,4]thiazine], the “Relative level of expression, AIFM2 gene” value in assay [6] is given as 4.94. For the same compound, the pIC50 in assay [1] is 4.06. Also, in assay [7], the “Relative level of expression, MDM2 gene” value was determined as 3.73. The fold induction at 100 µM was 5 in assay [2] and 60.3 in assay [4]. In assay [3], the “Relative level of expression, IL6 gene” value was 5.56.

Regarding `Fc1ccc(Cn2cc(CN3c4ccccc4Sc4cc5ccccc5nc43)nn2)cc1` [MJ2, 6-((1-(4-Fluorobenzyl)-1H-1,2,3-triazol-4-yl)methyl)-quino[3,2-b]benzo[1,4]thiazine], the pIC50 in assay [1] was 4.12. Further, the fold induction at 100 µM is 0.4 in assay [2] and 6.5 in assay [4].
